In patent publication US8592394B2, “Synthetic derivatives beta glycolipids and compositions thereof for the treatment of pathologic disorders” (Enzo Therapeutics, Inc., priority 2003, dated 2013):

Legend:
IFN-γ = assay: Serum IFN-γ by sandwich ELISA in ConA induced hepatitis; type: in vivo, mice
Experimental: Serum levels of IFN-γ, TGF-β, TNF-α IL-2, IL-4, IL-6, IL-10 and IL-12 were determined by “sandwich” ELISA, using commercial kits (Quantikine, R&D Systems, Minneapolis, Minn., USA). Serum insulin was also determined by “sandwich” ELISA too, using the commercial kit of Mercodia AB (Uppsala, Sweden) according to the manufacturer's instructions.
Assessment of the effect of any of the synthetic analogs on the immune response was next determined by analysis of the cytokine serum level of IFNγ in each animal using a commercial “sandwich” ELISA kit, and by FACS analysis of intrahepatic and intrasplenic (peripheral) lymphocytes levels.

STAT1 = assay: Immunoblot of liver lysates: STAT1 phosphorylation; type: in vivo, mice; settings: IP
Experimental: For ConA induced hepatitis experiments spleen and liver lysates were lysed in RIPA buffer containing 50 mM Tris, pH 7.4, 1% NP-40, 150 mM NaCl, 0.1% SDS, 0.5% sodium deoxycholate and protease inhibitors (5 μg/ml, Sigma), with protease and phosphatase (Sigma, Rehovot, Israel).
Lysates were centrifuged twice at 4° C. for 10 minutes in 14000 rpm. Equivalent amounts of lysates (15 μg/lane), determined by Bradford assay (Bio-Rad, Rehovot, Israel), were separated by sodium dodecyl sulfate polyacrylamide gel electrophoresis (SDS-PAGE) and transferred to nitrocellulose membranes.
For ConA induced hepatitis experiments proteins were detected with phospho-specific STAT1-Tyr701, STAT6-Tyr641, STAT1, and STAT6 antibodies from Cell Signaling. β-actin (abcam, UK) was used as a loading control.
Blots were developed with horseradish peroxidase-conjugated secondary antibodies (Jackson Laboratories Bar Harbor, Me.) and Western Blot-Luminol Reagent (Santa Cruz Biotechnology, CA, USA). Cell counting and western Blot quantification was performed using total Lab (Phoretix, USA) software.

CCCCCCCCCCCCCC=CC(O)C(CO[C@@H]1OC(CO)[C@@H](O)C(O)C1O)NC(=S)NC12CC3CC(CC(C3)C1)C2 (stereo in doubt) [ALIB-97, N-adamantyl-N′-glucosylsphingosine thiourea]
serum IFN-γ levels (IFN-γ; B6 mice, intraperitoneal): marked decrease | serum IFN-γ levels (IFN-γ; B6 mice, oral administration, after 20 hours, vs control p<0.01): significant decrease | serum IFN-γ levels (IFN-γ; CD1d−/− KO mice, intraperitoneal): did not significantly alter | IFNγ serum levels (IFN-γ; ConA induced hepatitis, C57Bl/6 mice, intraperitoneal, low dosage 1 μg/mice): decrease | serum IFN-γ levels (IFN-γ; Jα18−/− mice, intraperitoneal): substantial increase | STAT1 phosphorylation of Tyr 701 in the liver (STAT1; B6 mice): increased | STAT1 phosphorylation of Tyr 701 in the liver (STAT1; CD1d−/− mice): increased
